Experiments:
[1] = molecular target: T1, Avi-KRAS G12D (1-169) GppNHp/RAF1 RBD-3xFLAG (52-151) (Homo sapiens, UniProt P01116, G12D); test: Raf1-KRAS G12D-GppNHP disruption HTRF assay (Biological Example 1); format: binding
T1 construct: Avi-KRAS G12D (1-169)
How it was run: (§1)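 Compounds were tested for disruption of KRAS–RAF1 RBD binding by HTRF in 50 mM Tris pH 7.5, 100 mM NaCl, 5 mM MgCl2, 0.1% BSA, 0.01% Tween, 10% DMSO. Protein mix was incubated 1 h at room temperature with shaking, then detection reagents added for another 1 h. Activity expressed as percent of DMSO control.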

[2] = molecular target: T2, Avi-KRAS G12R (1-169) GppNHp/RAF1 RBD-3xFLAG (52-151) (Homo sapiens, UniProt P01116, G12R); test: Raf1-KRAS G12R-GppNHP disruption HTRF assay (Biological Example 1); format: binding
T2 construct: Avi-KRAS G12R (1-169)
How it was run: as §1

[3] = molecular target: T3, Avi-KRAS G12V (1-169) GppNHp/RAF1 RBD-3xFLAG (52-151) (Homo sapiens, UniProt P01116, G12V); test: Raf1-KRAS G12V-GppNHP disruption HTRF assay (Biological Example 1); format: binding
T3 construct: Avi-KRAS G12V (1-169)
How it was run: as §1

[4] = molecular target: T4, Avi-KRAS WT (1-169) GppNHp/RAF1 RBD-3xFLAG (52-151) (Homo sapiens, UniProt P01116); test: Raf1-KRAS WT-GppNHP disruption HTRF assay (Biological Example 1); format: binding
T4 construct: Avi-KRAS WT (1-169)
How it was run: as §1

[5] = test system: GP2d cells (KRAS G12D); test: Cell-based pERK HTRF assay in GP2d cell (Biological Example 2); settings: GP2d (KRAS G12D) cells, pERK HTRF
How it was run: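 HTRF read-out of pERK (excitation 320 nm, emission 615 nm) after lysates sat 4–24 h at room temperature with Eu cryptate and d2 antibodies.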

[6] = test system: SW620 cells (KRAS G12V); test: Cell-based pERK HTRF assay in SW620 cell (Biological Example 4); settings: pERK HTRF
How it was run: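 This assay measures inhibition of ERK phosphorylation downstream of KRAS G12V in intact SW620 cells. Compounds are applied for 4 h over nine half-log concentrations starting at 1 μM, and pERK is quantified by HTRF.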

[7] = KRAS G12D, GppNHp-loaded, class symbols
[8] = KRAS G12R, GppNHp-loaded, class symbols
[9] = KRAS G12V, GppNHp-loaded, class symbols
[10] = KRAS WT, GppNHp-loaded, class symbols
[11] = Homo sapiens, SW-620, SW620 (KRAS G12V) cells, class symbols
[12] = Homo sapiens, SW-620, SW620 (KRAS G12V) cells
[13] = KRAS G12D, GppNHp-loaded, Table 11
[14] = KRAS G12R, GppNHp-loaded, Table 11
[15] = KRAS G12V, GppNHp-loaded, Table 11
[16] = KRAS WT, GppNHp-loaded, Table 11

T3 sequence (P01116 1-169 isoform P01116-2 G12V): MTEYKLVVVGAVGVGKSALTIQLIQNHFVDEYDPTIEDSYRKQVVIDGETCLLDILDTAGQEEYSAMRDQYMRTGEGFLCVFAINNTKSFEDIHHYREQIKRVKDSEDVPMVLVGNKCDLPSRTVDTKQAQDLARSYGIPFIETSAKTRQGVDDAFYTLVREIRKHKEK
T2 sequence (P01116 1-169 isoform P01116-2 G12R): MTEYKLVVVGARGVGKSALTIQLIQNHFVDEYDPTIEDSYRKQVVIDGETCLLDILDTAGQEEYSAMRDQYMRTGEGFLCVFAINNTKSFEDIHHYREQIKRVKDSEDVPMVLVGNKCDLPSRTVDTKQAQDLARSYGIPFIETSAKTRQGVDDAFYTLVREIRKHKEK
T1 sequence (P01116 1-169 isoform P01116-2 G12D): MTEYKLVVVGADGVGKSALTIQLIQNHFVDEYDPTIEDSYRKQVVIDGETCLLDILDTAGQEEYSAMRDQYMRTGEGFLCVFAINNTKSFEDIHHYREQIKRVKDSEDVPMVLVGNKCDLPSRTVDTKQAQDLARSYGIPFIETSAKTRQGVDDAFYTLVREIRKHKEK
T4 sequence (P01116 1-169 isoform P01116-2): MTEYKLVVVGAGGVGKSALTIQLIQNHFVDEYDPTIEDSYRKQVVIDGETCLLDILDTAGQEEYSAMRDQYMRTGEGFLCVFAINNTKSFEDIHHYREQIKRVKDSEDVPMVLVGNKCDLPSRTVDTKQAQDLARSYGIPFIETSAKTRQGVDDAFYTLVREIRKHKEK

SMILES	IC50 ([1]; KRAS G12D-GppNHp/RAF1 RBD HTRF)	IC50 ([2]; KRAS G12R-GppNHp/RAF1 RBD HTRF)	IC50 ([3]; KRAS G12V-GppNHp/RAF1 RBD HTRF)	IC50 ([4]; KRAS WT-GppNHp/RAF1 RBD HTRF)	IC50 ([5]; GP2d)	IC50 [6, 12]	other results
CC(C)C(=O)N1CC[C@H](N(C)c2nc(OC[C@@]34CCCN3C[C@H](F)C4)nc3c(F)c(-c4ccc(F)c5sc(N)c(C#N)c45)c(C(F)(F)F)cc23)C1 (atropisomer, axis not shown) [Compound 786]	–	–	–	–	–	–	IC50 [1, 7]: < 100 nM; IC50 [2, 8]: < 100 nM; IC50 [3, 9]: 100 to 1000 nM; IC50 [4, 10]: 100 to 1000 nM; IC50 ([5]; GP2d, class symbols): < 100 nM; IC50 [6, 11]: < 100 nM
CN(c1nc(OC[C@@]23CCCN2C[C@H](F)C3)nc2c(F)c(-c3ccc(F)c4sc(N)c(C#N)c34)c(C(F)(F)F)cc12)C1CCCS(=O)(=O)C1 (stereo partly drawn) [Compound 341]	100 to 1000 nM	100 to 1000 nM	1000 to 10000 nM	100 to 1000 nM	< 100 nM	100 to 1000 nM	–
CC(=O)N1C[C@H](N(C)c2nc(OC[C@@]34CCCN3C[C@H](F)C4)nc3c(F)c(-c4ccc(F)c5sc(N)c(C#N)c45)c(C(F)(F)F)cc23)C[C@H]1C [Compound 321]	100 to 1000 nM	100 to 1000 nM	100 to 1000 nM	100 to 1000 nM	< 100 nM	< 100 nM	–
C[C@H]1C[C@H](O)CCN1c1nc(OC[C@@]23CCCN2C[C@H](F)C3)nc2c(F)c(-c3ccc(F)c4sc(N)c(C#N)c34)c(C(F)(F)F)cc12 [Compound 246]	–	–	–	–	< 100 nM	< 100 nM	IC50 [1, 13]: 100 to 1000 nM; IC50 [2, 14]: 100 to 1000 nM; IC50 [3, 15]: 100 to 1000 nM; IC50 [4, 16]: 100 to 1000 nM
CC(=O)N1CC[C@@H](N(C)c2nc(OC[C@@]34CCCN3C[C@H](F)C4)nc3c(F)c(-c4ccc(F)c5sc(N)c(C#N)c45)c(C(F)(F)F)cc23)C1 [Compound 112]	–	–	–	–	< 100 nM	< 100 nM	IC50 [1, 13]: 100 to 1000 nM; IC50 [2, 14]: 100 to 1000 nM; IC50 [3, 15]: 100 to 1000 nM; IC50 [4, 16]: 100 to 1000 nM
CC(=O)N1C[C@@H](N(C)c2nc(OC[C@@]34CCCN3C[C@H](F)C4)nc3c(F)c(-c4ccc(F)c5sc(N)c(C#N)c45)c(C(F)(F)F)cc23)C[C@@H]1CF [Compound 454]	100 to 1000 nM	100 to 1000 nM	100 to 1000 nM	100 to 1000 nM	< 100 nM	< 100 nM	–
CN(C)C(=O)[C@H]1CC[C@@H](N(C)c2nc(OC[C@@]34CCCN3C[C@H](F)C4)nc3c(F)c(-c4ccc(F)c5sc(N)c(C#N)c45)c(C(F)(F)F)cc23)C1 [Compound 497]	100 to 1000 nM	1000 to 10000 nM	1000 to 10000 nM	1000 to 10000 nM	< 100 nM	< 100 nM	–
CC[C@@H](C)C(=O)N1CC[C@H](N(CC)c2nc(OC[C@@]34CCCN3C[C@H](F)C4)nc3c(F)c(-c4ccc(F)c5sc(N)c(C#N)c45)c(C(F)(F)F)cc23)C1 (atropisomer, axis not shown) [Compound 563]	< 100 nM	100 to 1000 nM	100 to 1000 nM	100 to 1000 nM	< 100 nM	< 100 nM	–
CC(C)C(=O)N1CC[C@@H](N(C)c2nc(OC[C@@]34CCCN3C[C@H](F)C4)nc3c(F)c(-c4ccc(F)c5sc(N)c(C#N)c45)c(C(F)(F)F)cc23)[C@H]1C [Compound 261]	–	–	–	–	< 100 nM	< 100 nM	IC50 [1, 13]: 100 to 1000 nM; IC50 [2, 14]: 100 to 1000 nM; IC50 [3, 15]: 100 to 1000 nM; IC50 [4, 16]: < 100 nM
CC1c2cc(C(=O)N(C)C)nn2CCN1c1nc(OCC23CCCN2CC(F)C3)nc2c(F)c(-c3ccc(F)c4sc(N)c(C#N)c34)c(C(F)(F)F)cc12 (stereo not drawn) [Compound 701]	–	–	–	–	–	–	IC50 [1, 7]: 1000 to 10000 nM; IC50 [2, 8]: 1000 to 10000 nM; IC50 [3, 9]: 1000 to 10000 nM; IC50 [4, 10]: > 10000 nM; IC50 ([5]; class symbols): < 100 nM; IC50 ([6]; SW620 (KRAS G12V) cells, class symbols): < 100 nM
C[C@@H]1[C@H](N(C)c2nc(OC[C@@]34CCCN3C[C@H](F)C4)nc3c(F)c(-c4ccc(F)c5sc(N)c(C#N)c45)c(C(F)(F)F)cc23)CCN1C(=O)C1(C#N)CC1 [Compound 325]	100 to 1000 nM	100 to 1000 nM	100 to 1000 nM	100 to 1000 nM	< 100 nM	< 100 nM	–
CN(C[C@H](F)CO)c1nc(OC[C@@]23CCCN2C[C@H](F)C3)nc2c(F)c(-c3ccc(F)c4sc(N)c(C#N)c34)c(C(F)(F)F)cc12 [Compound 216]	–	–	–	–	< 100 nM	< 100 nM	IC50 [1, 13]: 100 to 1000 nM; IC50 [2, 14]: 100 to 1000 nM; IC50 [3, 15]: 100 to 1000 nM; IC50 [4, 16]: 100 to 1000 nM
N#Cc1cc2n(n1)CCN(c1nc(OC[C@@]34CCCN3C[C@H](F)C4)nc3c(F)c(-c4ccc(F)c5sc(N)c(C#N)c45)c(C(F)(F)F)cc13)C2 [Compound 393]	1000 to 10000 nM	> 10000 nM	> 10000 nM	> 10000 nM	< 100 nM	< 100 nM	–
C[C@@H]1[C@H](N(C)c2nc(OC[C@@]34CCCN3C[C@H](F)C4)nc3c(F)c(-c4ccc(F)c5sc(N)c(C#N)c45)c(C(F)(F)F)cc23)CCN1C(=O)CF [Compound 461]	< 100 nM	100 to 1000 nM	100 to 1000 nM	< 100 nM	–	< 100 nM	IC50 [5]: < 100 nM
CCC(=O)N1CC[C@H]2[C@@H]1CN2c1nc(OC[C@@]23CCCN2C[C@H](F)C3)nc2c(F)c(-c3ccc(F)c4sc(N)c(C#N)c34)c(C(F)(F)F)cc12 (atropisomer, axis not shown) [Compound 642]	–	–	–	–	–	–	IC50 [1, 7]: 1000 to 10000 nM; IC50 [2, 8]: 1000 to 10000 nM; IC50 [3, 9]: 1000 to 10000 nM; IC50 [4, 10]: 1000 to 10000 nM; IC50 ([5]; GP2d, class symbols): < 100 nM; IC50 [6, 11]: 100 to 1000 nM
N#Cc1c(N)sc2c(F)ccc(-c3c(C(F)(F)F)cc4cnc(OC[C@@]56CCCN5C[C@H](F)C6)nc4c3F)c12 [Compound 213, 2-amino-7-fluoro-4-[8-fluoro-2-[[(2R,8S)-2-fluoro-1,2,3,5,6,7-hexahydropyrrolizin-8-yl]methoxy]-6-(trifluoromethyl)quinazolin-7-yl]benzothiophene-3-carbonitrile]	–	–	–	–	< 100 nM	< 100 nM	IC50 [1, 13]: 100 to 1000 nM; IC50 [2, 14]: 100 to 1000 nM; IC50 [3, 15]: 100 to 1000 nM; IC50 [4, 16]: 100 to 1000 nM
CCN(c1nc(OC[C@@]23CCCN2C[C@H](F)C3)nc2c(F)c(-c3ccc(F)c4sc(N)c(C#N)c34)c(C(F)(F)F)cc12)[C@H]1CCN(C(=O)[C@H](C)OC)C1 (atropisomer, axis not shown) [Compound 571]	–	–	–	–	–	–	IC50 [1, 7]: < 100 nM; IC50 [2, 8]: < 100 nM; IC50 [3, 9]: < 100 nM; IC50 [4, 10]: < 100 nM; IC50 ([5]; GP2d, class symbols): < 100 nM; IC50 [6, 11]: < 100 nM
N#Cc1c(N)sc2c(F)ccc(-c3c(C(F)(F)F)cc4c(N5CCn6nc(C(=O)N7CC[C@H](O)C7)cc6C5)nc(OC[C@@]56CCCN5C[C@H](F)C6)nc4c3F)c12 [Compound 500]	100 to 1000 nM	100 to 1000 nM	100 to 1000 nM	100 to 1000 nM	< 100 nM	100 to 1000 nM	–
CCN1CC[C@@H](N(CC)c2nc(OC[C@@]34CCCN3C[C@H](F)C4)nc3c(F)c(-c4ccc(F)c5sc(N)c(C#N)c45)c(C(F)(F)F)cc23)C1=O (atropisomer, axis not shown) [Compound 695]	–	–	–	–	–	–	IC50 [1, 7]: 100 to 1000 nM; IC50 [2, 8]: 100 to 1000 nM; IC50 [3, 9]: 100 to 1000 nM; IC50 [4, 10]: 100 to 1000 nM; IC50 ([5]; GP2d, class symbols): < 100 nM; IC50 [6, 11]: < 100 nM
C[C@H]1[C@@H](N(C)c2nc(OC[C@@]34CCCN3C[C@H](F)C4)nc3c(F)c(-c4ccc(F)c5sc(N)c(C#N)c45)c(C(F)(F)F)cc23)CCN1C(=O)CC#N [Compound 252]	–	–	–	–	100 to 1000 nM	100 to 1000 nM	IC50 [1, 13]: 1000 to 10000 nM; IC50 [2, 14]: 1000 to 10000 nM; IC50 [3, 15]: 1000 to 10000 nM; IC50 [4, 16]: 1000 to 10000 nM
[2H]C1([2H])CN2C[C@H](F)C[C@]2(COc2nc(N(CC)[C@H]3CCN(C(=O)C(C)C)C3)c3cc(C(F)(F)F)c(-c4ccc(F)c5sc(N)c(C#N)c45)c(F)c3n2)C1 [Compound 565]	< 100 nM	< 100 nM	100 to 1000 nM	100 to 1000 nM	< 100 nM	< 100 nM	–
CN(C)C(=O)c1cn2c(n1)CN(c1nc(OC[C@@]34CCCN3C[C@H](F)C4)nc3c(F)c(-c4ccc(F)c5sc(N)c(C#N)c45)c(C(F)(F)F)cc13)CC2 [Compound 419]	100 to 1000 nM	100 to 1000 nM	100 to 1000 nM	100 to 1000 nM	< 100 nM	< 100 nM	–
